These results are taken from patent US7259153B2, “Drug formulation and delivery using crystalline methylated cyclodextrins” (Supernus Pharmaceuticals, priority 2003, dated 2007).

Data set [1] in a line: Equilibrium solubility of drug substance in media with solubilizer (excess drug, rotated 48 hours at room temperature, filtered, HPLC). The class given is physicochemical. Conditions: for solubility enhancement ratio: vs vehicle alone; for solubility at 48 h: thermodynamic from solid. The method, then:
An excess of drug substance was added to 20 ml glass liquid scintillation vials (Kimble Glass Inc., Vineland, N.J.) containing 10 ml of the media with a specific amount of solubilizer. […] The samples were filtered through a 0.45 μm filter (Acrodisc CR PTFE membrane filter, Gelman Sciences, Ann Arbor, Mich.). After discarding the first mL of the filtrates to eliminate any membrane adsorptive effect, the filtrates were collected for high-performance liquid chromatography (HPLC) analysis for drug concentration.

For data set [2] the following is noted: water; cited from earlier work.
Data set [3] in a line: Stability of crystalline methylated β-cyclodextrin against heat and humidity. The class given is physicochemical.
The nature of data set [4]: Water solubility of the cyclodextrin itself. The class given is physicochemical. Conditions: room temperature.
Setting [5] is: 2% (w/v) Cryst. Methylated β-CD, aqueous.
The mark [6] stands for this setting: 2% (w/v) HP-β-cyclodextrin, aqueous.
[7] abbreviates: 5% (w/v) Cryst. Methylated β-CD, aqueous.
Setting [8] is: 5% (w/v) HP-β-cyclodextrin, aqueous.
Setting [9] is: 10% (w/v) Cryst. Methylated β-CD, aqueous.
The mark [10] stands for this setting: 10% (w/v) HP-β-cyclodextrin, aqueous.

Values after ≈ are worked out from the molar mass of the structure shown. Like-named read-outs stand apart in the source and are kept apart here.

A word on the solubility: it is how much of the substance goes into solution per volume. On to `NC(=O)N1c2ccccc2C=Cc2ccccc21` [Carbamazepine], for which the solubility enhancement ratio in data set [1] (1% (w/v) β-Cyclodextrin, aqueous) is 5.9; in data set [1] (2% (w/v) Cavasol W7M, aqueous), 9.5; in data set [1] (setting [5]), 13.7; in data set [1] (setting [6]), 11.0; in data set [1] (2% (w/v) β-Cyclodextrin, aqueous), 10.5; in data set [1] (5% (w/v) Cavasol W7M, aqueous) it was 22.8. For the same compound, the solubility enhancement ratio in data set [1] (setting [7]) was determined as 31.8; in data set [1] (setting [8]), 25.4; in data set [1] (7.5% (w/v) Cavasol W7M, aqueous) it was 33.3; in data set [1] (7.5% (w/v) Cryst. Methylated β-CD, aqueous), 47.5; in data set [1] (7.5% (w/v) HP-β-cyclodextrin, aqueous) it was 43.1; in data set [1] (10% (w/v) Cavasol W7M, aqueous) it was 46.4. Moreover, the solubility enhancement ratio in data set [1] (setting [9]) is 61.6; in data set [1] (setting [10]), 53.3; in data set [1] (20% (w/v) Cavasol W7M, aqueous) it was 96.5; in data set [1] (20% (w/v) Cryst. Methylated β-CD, aqueous), 132.4; in data set [1] (20% (w/v) HP-β-cyclodextrin, aqueous), 94.8. Besides, the solubility at 48 h in data set [1] (1% (w/v) β-cyclodextrin in water, aqueous with cosolvent or surfactant or cyclodextrin, 1% (w/v) β-Cyclodextrin, aqueous, read-out: Carbamazepine Solubility) was 669 µg/mL (≈ 2.83 mM); in data set [1] (2% (w/v) Cavasol W7M in water, aqueous with cosolvent or surfactant or cyclodextrin, 2% (w/v) Cavasol W7M, aqueous, read-out: Carbamazepine Solubility), 1070 µg/mL (≈ 4.52 mM); in data set [1] (2% (w/v) HP-β-cyclodextrin in water, aqueous with cosolvent or surfactant or cyclodextrin, 2% (w/v) HP-β-cyclodextrin, aqueous, read-out: Carbamazepine Solubility), 1240 µg/mL (≈ 5.26 mM); in data set [1] (2% (w/v) crystalline methylated β-cyclodextrin in water, aqueous with cosolvent or surfactant or cyclodextrin, 2% (w/v) Cryst. Methylated β-CD, aqueous, read-out: Carbamazepine Solubility), 1540 µg/mL (≈ 6.53 mM); in data set [1] (2% (w/v) β-cyclodextrin in water, aqueous with cosolvent or surfactant or cyclodextrin, 2% (w/v) β-Cyclodextrin, aqueous, read-out: Carbamazepine Solubility) it was 1190 µg/mL (≈ 5.02 mM); in data set [1] (5% (w/v) Cavasol W7M in water, aqueous with cosolvent or surfactant or cyclodextrin, 5% (w/v) Cavasol W7M, aqueous, read-out: Carbamazepine Solubility) it was 2580 µg/mL (≈ 10.9 mM). The solubility at 48 h in data set [1] (5% (w/v) HP-β-cyclodextrin in water, aqueous with cosolvent or surfactant or cyclodextrin, 5% (w/v) HP-β-cyclodextrin, aqueous, read-out: Carbamazepine Solubility) amounted to 2880 µg/mL (≈ 12.2 mM); in data set [1] (5% (w/v) crystalline methylated β-cyclodextrin in water, aqueous with cosolvent or surfactant or cyclodextrin, 5% (w/v) Cryst. Methylated β-CD, aqueous, read-out: Carbamazepine Solubility) it was 3590 µg/mL (≈ 15.2 mM); in data set [1] (7.5% (w/v) Cavasol W7M in water, aqueous with cosolvent or surfactant or cyclodextrin, 7.5% (w/v) Cavasol W7M, aqueous, read-out: Carbamazepine Solubility) it was 3760 µg/mL (≈ 15.9 mM); in data set [1] (7.5% (w/v) HP-β-cyclodextrin in water, aqueous with cosolvent or surfactant or cyclodextrin, 7.5% (w/v) HP-β-cyclodextrin, aqueous, read-out: Carbamazepine Solubility), 4870 µg/mL (≈ 20.6 mM); in data set [1] (7.5% (w/v) crystalline methylated β-cyclodextrin in water, aqueous with cosolvent or surfactant or cyclodextrin, 7.5% (w/v) Cryst. Methylated β-CD, aqueous, read-out: Carbamazepine Solubility), 5370 µg/mL (≈ 22.7 mM); in data set [1] (10% (w/v) Cavasol W7M in water, aqueous with cosolvent or surfactant or cyclodextrin, 10% (w/v) Cavasol W7M, aqueous, read-out: Carbamazepine Solubility) it was 5250 µg/mL (≈ 22.2 mM). For the same compound, the solubility at 48 h in data set [1] (10% (w/v) HP-β-cyclodextrin in water, aqueous with cosolvent or surfactant or cyclodextrin, 10% (w/v) HP-β-cyclodextrin, aqueous, read-out: Carbamazepine Solubility) is 6020 µg/mL (≈ 25.5 mM); in data set [1] (10% (w/v) crystalline methylated β-cyclodextrin in water, aqueous with cosolvent or surfactant or cyclodextrin, 10% (w/v) Cryst. Methylated β-CD, aqueous, read-out: Carbamazepine Solubility), 6960 µg/mL (≈ 29.5 mM); in data set [1] (20% (w/v) Cavasol W7M in water, aqueous with cosolvent or surfactant or cyclodextrin, 20% (w/v) Cavasol W7M, aqueous, read-out: Carbamazepine Solubility), 10900 µg/mL (≈ 46.2 mM); in data set [1] (20% (w/v) HP-β-cyclodextrin in water, aqueous with cosolvent or surfactant or cyclodextrin, 20% (w/v) HP-β-cyclodextrin, aqueous, read-out: Carbamazepine Solubility), 10700 µg/mL (≈ 45.3 mM); in data set [1] (20% (w/v) crystalline methylated β-cyclodextrin in water, aqueous with cosolvent or surfactant or cyclodextrin, 20% (w/v) Cryst. Methylated β-CD, aqueous (heating to dissolve CD), read-out: Carbamazepine Solubility), 15000 µg/mL (≈ 63.3 mM); in data set [1] (PEG 400, organic solvent or mixture, vehicle: PEG 400, read-out: Carbamezepine Solubility), 77900 µg/mL (≈ 330 mM). In addition, the solubility at 48 h in data set [1] (Transcutol, organic solvent or mixture, vehicle: Transcutol, read-out: Carbamezepine Solubility) came to 78100 µg/mL (≈ 331 mM); in data set [1] (propylene glycol, organic solvent or mixture, vehicle: Propylene Glycol, read-out: Carbamezepine Solubility), 35300 µg/mL (≈ 150 mM). In addition, the “carbamazepine solubility in propylene glycol relative to aqueous solubility” value in data set [1] (propylene glycol vs water) was “about 310 fold”. Further, the “Carbamazepine Solubility” value in data set [1] (water, 0% (w/v) cyclodextrin) was 113 µg/mL.

With `OC[C@H]1O[C@@H]2O[C@H]3[C@H](O)[C@@H](O)[C@@H](O[C@H]4[C@H](O)[C@@H](O)[C@@H](O[C@H]5[C@H](O)[C@@H](O)[C@@H](O[C@H]6[C@H](O)[C@@H](O)[C@@H](O[C@H]7[C@H](O)[C@@H](O)[C@@H](O[C@H]8[C@H](O)[C@@H](O)[C@@H](O[C@H]1[C@H](O)[C@H]2O)O[C@@H]8CO)O[C@@H]7CO)O[C@@H]6CO)O[C@@H]5CO)O[C@@H]4CO)O[C@@H]3CO` [β-cyclodextrin], the aqueous solubility in data set [2] is recorded as 1.8 % w/v.

As to crystalline methylated β-cyclodextrin, in data set [3], the “stability against heat and humidity” value is “stable against heat and humidity”. The water solubility result in data set [4] is on record as “around 15%”.

As to `NC(=O)N1c2ccccc2CC(=O)c2ccccc21` [Oxcarbazepine], the solubility at 48 h in data set [1] (1% (w/v) Cavasol W7M, aqueous, aqueous with cosolvent or surfactant or cyclodextrin, 1% (w/v) Cavasol W7M, aqueous, read-out: Oxcarbazepine Solubility) amounted to 150 µg/mL (≈ 0.595 mM); in data set [1] (1% (w/v) Cryst. Methylated β-CD, aqueous, aqueous with cosolvent or surfactant or cyclodextrin, 1% (w/v) Cryst. Methylated β-CD, aqueous, read-out: Oxcarbazepine Solubility), 230 µg/mL (≈ 0.912 mM); in data set [1] (1% (w/v) HP-β-cyclodextrin, aqueous, aqueous with cosolvent or surfactant or cyclodextrin, 1% (w/v) HP-β-cyclodextrin, aqueous, read-out: Oxcarbazepine Solubility), 130 µg/mL (≈ 0.515 mM); in data set [1] (1% (w/v) Tween 80, aqueous, aqueous with cosolvent or surfactant or cyclodextrin, 1% (w/v) Tween 80, aqueous, read-out: Oxcarbazepine Solubility), 120 µg/mL (≈ 0.476 mM); in data set [1] (2% (w/v) Cavasol W7M, aqueous, aqueous with cosolvent or surfactant or cyclodextrin, 2% (w/v) Cavasol W7M, aqueous, read-out: Oxcarbazepine Solubility), 240 µg/mL (≈ 0.951 mM); in data set [1] (2% (w/v) Cryst. Methylated β-CD, aqueous, aqueous with cosolvent or surfactant or cyclodextrin, 2% (w/v) Cryst. Methylated β-CD, aqueous, read-out: Oxcarbazepine Solubility), 310 µg/mL (≈ 1.23 mM). For the same compound, the solubility at 48 h in data set [1] (2% (w/v) HP-β-cyclodextrin, aqueous, aqueous with cosolvent or surfactant or cyclodextrin, 2% (w/v) HP-β-cyclodextrin, aqueous, read-out: Oxcarbazepine Solubility) was determined as 190 µg/mL (≈ 0.753 mM); in data set [1] (2% (w/v) Tween 80, aqueous, aqueous with cosolvent or surfactant or cyclodextrin, 2% (w/v) Tween 80, aqueous, read-out: Oxcarbazepine Solubility), 170 µg/mL (≈ 0.674 mM); in data set [1] (5% (w/v) Tween 80, aqueous, aqueous with cosolvent or surfactant or cyclodextrin, 5% (w/v) Tween 80, aqueous, read-out: Oxcarbazepine Solubility), 290 µg/mL (≈ 1.15 mM); in data set [1] (aqueous media with solubilizer, aqueous with cosolvent or surfactant or cyclodextrin, 5% (w/v) Cavasol W7M, aqueous, read-out: Oxcarbazepine Solubility), 490 µg/mL (≈ 1.94 mM); in data set [1] (aqueous media with solubilizer, aqueous with cosolvent or surfactant or cyclodextrin, 5% (w/v) Cryst. Methylated β-CD, aqueous, read-out: Oxcarbazepine Solubility), 820 µg/mL (≈ 3.25 mM); in data set [1] (aqueous media with solubilizer, aqueous with cosolvent or surfactant or cyclodextrin, 5% (w/v) HP-β-cyclodextrin, aqueous, read-out: Oxcarbazepine Solubility), 340 µg/mL (≈ 1.35 mM). The solubility at 48 h was found to be 670 µg/mL (≈ 2.66 mM) in data set [1] (aqueous media with solubilizer, aqueous with cosolvent or surfactant or cyclodextrin, 10% (w/v) Cavasol W7M, aqueous, read-out: Oxcarbazepine Solubility); 1490 µg/mL (≈ 5.91 mM) in data set [1] (aqueous media with solubilizer, aqueous with cosolvent or surfactant or cyclodextrin, 10% (w/v) Cryst. Methylated β-CD, aqueous, read-out: Oxcarbazepine Solubility); 670 µg/mL (≈ 2.66 mM) in data set [1] (aqueous media with solubilizer, aqueous with cosolvent or surfactant or cyclodextrin, 10% (w/v) HP-β-cyclodextrin, aqueous, read-out: Oxcarbazepine Solubility); 500 µg/mL (≈ 1.98 mM) in data set [1] (aqueous media with solubilizer, aqueous with cosolvent or surfactant or cyclodextrin, 10% (w/v) Tween 80, aqueous, read-out: Oxcarbazepine Solubility); 70 µg/mL (≈ 0.277 mM) in data set [1] (water, water, 0% (w/v) solubilizer, read-out: Oxcarbazepine Solubility). The solubility enhancement ratio in data set [1] (1% (w/v) Cavasol W7M, aqueous) was found to be 2.1; in data set [1] (1% (w/v) Cryst. Methylated β-CD, aqueous), 3.3; in data set [1] (1% (w/v) HP-β-cyclodextrin, aqueous), 1.9; in data set [1] (1% (w/v) Tween 80, aqueous), 1.7; in data set [1] (2% (w/v) Cavasol W7M, aqueous), 3.4; in data set [1] (setting [5]) it was 4.4. The solubility enhancement ratio in data set [1] (setting [6]) came to 2.7; in data set [1] (2% (w/v) Tween 80, aqueous), 2.4; in data set [1] (5% (w/v) Cavasol W7M, aqueous), 7.0; in data set [1] (setting [7]), 11.7; in data set [1] (setting [8]), 4.9; in data set [1] (5% (w/v) Tween 80, aqueous) it was 4.1. Moreover, the solubility enhancement ratio is 9.6 in data set [1] (10% (w/v) Cavasol W7M, aqueous); 21.3 in data set [1] (setting [9]); 9.6 in data set [1] (setting [10]); 7.1 in data set [1] (10% (w/v) Tween 80, aqueous). Also, the “Oxcarbazepine Solubility” value in data set [1] (water, 0% (w/v) solubilizer) was determined as 70 µg/mL.
